Experimental data published in the OligoGym collection.
After the bases stand the sugars from the 5' end (letter, count) and the backbone: PS all phosphorothioate, else s phosphorothioate and o phosphodiester by linkage. Methylation of C is not given here. e = 2'-O-(2-methoxyethyl) (MOE); k = constrained ethyl (cEt); d = 2'-deoxy (DNA); m = 2'-O-methyl

Biological target: HSD17B13
Settings: ASO, HepaRG

Row | Sequence | target mRNA inhibition (1 µM) [%] | also measured
1 | TGAGGTTTTGATACCA (sugars k3 d10 k3, PS) | 63 | –
2 | TGAGTAAACGACTCTG (sugars k3 d10 k3, PS) | 23 | –
3 | TGATATACGATGGAAC (sugars k3 d10 k3, PS) | 13 | –
4 | TGATGGTGATCAGAAG (sugars k3 d10 k3, PS) | 0 | –
5 | TGATGTAGTGGGAGTC (sugars k3 d9 k3 e1, PS) | – | target mRNA inhibition (0.02 µM): 5%; target mRNA inhibition (0.078 µM): 0%; target mRNA inhibition (0.313 µM): 36%; target mRNA inhibition (1.25 µM): 62%; target mRNA inhibition (5 µM): 74%
6 | TGATGTAGTGGGAGTC (sugars k3 d10 k3, PS) | 65 | –
7 | TGATTACAGCATCAAG (sugars k3 d10 k3, PS) | 69 | –
8 | TGATTCGAAACTATTC (sugars k3 d10 k3, PS) | 29 | –
9 | TGATTGAGTTCTCCAC (sugars k3 d9 k3 e1, PS) | 30 | –
10 | TGATTGAGTTCTCCAC (sugars kkdddddddddkekek, PS) | 32 | –
11 | TGCATCTTAAGATACC (sugars k3 d9 k3 e1, PS) | 37 | –
12 | TGCAUCTTAAGATACC (sugars k3 d1 m1 d8 k3, PS) | 51 | –
13 | TGCCAGATTGCACAAA (sugars k3 d10 k3, PS) | 54 | –
14 | TGCCAGGGAATGCTCA (sugars k3 d10 k3, PS) | 23 | –
15 | TGCGAGAAATCTAAGA (sugars k3 d10 k3, PS) | 50 | –
16 | TGCTAAGTAGTAATTC (sugars k3 d10 k3, PS) | 32 | –
17 | TGCTAGTGCCAAACCA (sugars k3 d9 k3 e1, PS) | 73 | target mRNA inhibition (0.02 µM): 8%; target mRNA inhibition (0.078 µM): 16%; target mRNA inhibition (0.313 µM): 38%; target mRNA inhibition (1.25 µM): 54%; target mRNA inhibition (5 µM): 71%
18 | TGCTCCATAATAATAG (sugars k3 d10 k3, PS) | 35 | –
19 | TGCTGAGAAGATCGGC (sugars k3 d10 k3, PS) | 7 | –
20 | TGCTGCTAGTGCCAAA (sugars k3 d1 m1 d8 k3, PS) | 50 | –
21 | TGGAATGCTACTTGAA (sugars k3 d1 m1 d8 k3, PS) | 79 | target mRNA inhibition (0.02 µM): 13%; target mRNA inhibition (0.078 µM): 27%; target mRNA inhibition (0.313 µM): 35%; target mRNA inhibition (1.25 µM): 66%; target mRNA inhibition (5 µM): 91%
22 | TGGAATGCTACTTGAA (sugars kkdddddddddkekek, PS) | 68 | –

Row | Sequence | target mRNA inhibition (1 µM) [%] | also measured
23 | TGGAGGAAAGCTTCAA (sugars k3 d10 k3, PS) | 10 | –
24 | TGGCATGGCTACAGAT (sugars kkdddddddddkekek, PS) | 58 | –
25 | TGGCCGCACACTGAAG (sugars k3 d10 k3, PS) | 0 | –
26 | TGGCCTTACCAGAATT (sugars k3 d10 k3, PS) | 46 | –
27 | TGGTAACGGTGATCAA (sugars k3 d10 k3, PS) | 74 | target mRNA inhibition (0.02 µM): 14%; target mRNA inhibition (0.078 µM): 28%; target mRNA inhibition (0.313 µM): 58%; target mRNA inhibition (1.25 µM): 76%; target mRNA inhibition (5 µM): 88%
28 | TGGTAATCTCTTCATC (sugars k3 d10 k3, PS) | 23 | –
29 | TGGTGGACTTCAGAGT (sugars k3 d10 k3, PS) | 17 | –
30 | TGTAAAGGCTGGGTGA (sugars k3 d10 k3, PS) | 26 | –
31 | TGTAAGCTGAGAGTTC (sugars k3 d10 k3, PS) | 45 | –
32 | TGTCAGAGACTCTGTG (sugars k3 d10 k3, PS) | 39 | –
33 | TGTCCACCTTTAAATG (sugars k3 d1 m1 d8 k3, PS) | 17 | –
34 | TGTCCACCTTTAAATG (sugars kkdddddddddkekek, PS) | 27 | –
35 | TGTCCAGAAGTATGTG (sugars k3 d10 k3, PS) | 0 | –
36 | TGTCTAAACATCTCTG (sugars k3 d9 k3 e1, PS) | 69 | –
37 | TGTCTAAACATCTCTG (sugars k3 d10 k3, PS) | 58 | –
38 | TGTCTAAACATCTCTG (sugars kkdddddddddkekek, PS) | 59 | –
39 | TGTCTCCAATACAGGC (sugars k3 d10 k3, PS) | 39 | –
40 | TGTCUAAACATCTCTG (sugars k3 d1 m1 d8 k3, PS) | 44 | –
41 | TGTGATTGAGTTCTCC (sugars k3 d9 k3 e1, PS) | 52 | –
42 | TGTGATTGAGTTCTCC (sugars k3 d10 k3, PS) | 62 | target mRNA inhibition (0.02 µM): 1%; target mRNA inhibition (0.078 µM): 14%; target mRNA inhibition (0.313 µM): 20%; target mRNA inhibition (1.25 µM): 42%; target mRNA inhibition (5 µM): 70%
43 | TGTGATTGAGTTCTCC (sugars kkdddddddddkekek, PS) | 11 | –
